Patent US12371454B2, “Cyclic peptide compound having Kras inhibitory action” (priority 2019, dated 2025)
Starred links: 1 amine or outer side, 2 acyl side, 3 side chain; linkers in the order of their positions; H or OH if unused. Positions of bridges follow the written chain, without caps; N, C: chain ends. Non-standard residues stand in square brackets, D forms with d. Residues, ends and D or L forms follow the SMILES beside them. *: point of attachment. hPhe(3,5-F2-4-CF3) = N[C@@H](CCc1cc(F)c(C(F)(F)F)c(F)c1)C(=O)O; hPhe(3-Cl-4-CF3) = N[C@@H](CCc1ccc(C(F)(F)F)c(Cl)c1)C(=O)O; hPhe(3-F,4-CF3) = N[C@@H](CCc1ccc(C(F)(F)F)c(F)c1)C(=O)O; NMePhe(4-CF3) = CN[C@@H](Cc1ccc(C(F)(F)F)cc1)C(=O)O; Pro(trans-4-Ph) = O=C(O)[C@@H]1C[C@@H](c2ccccc2)CN1; NMePhe(4-Me) = CN[C@@H](Cc1ccc(C)cc1)C(=O)O; NMeNle(6-CHF2) = CN[C@@H](CCCCC(F)F)C(=O)O; NMedβ3hAla = C[C@H](CC(=O)[*:2])N(C)[*:1]; NMeAla(cPent) = CN[C@@H](CC1CCCC1)C(=O)O; NMeGly(cPent) = CN[C@H](C(=O)O)C1CCCC1; NMeCha = CN[C@@H](CC1CCCCC1)C(=O)O; NMeChg = CN[C@H](C(=O)O)C1CCCCC1; NMeI = CC[C@H](C)[C@H](NC)C(=O)O; NMeD = CN[C@@H](CC(=O)O)C(=O)O; NMeL = CN[C@@H](CC(C)C)C(=O)O; NMeV = CN[C@H](C(=O)O)C(C)C; NMeA = CN[C@@H](C)C(=O)O; Piperidide = C1CCN(*)CC1; Pyrrolidide = C1CCN(*)C1; Ac5c = NC1(C(=O)O)CCCC1; Aze = O=C(O)[C@@H]1CCN1; Sar = CNCC(=O)O

system: Human pancreatic cancer cell line AsPC-1; assay: Measurement of AsPC-1 cell growth inhibition (AsPC-1 CGI); assay type: cell-based; conditions: 96 h
Experimental: Measurement of AsPC-1 Cell Growth Inhibition (AsPC-1 CGI)
Test compounds were serially diluted with dimethyl sulfoxide, and 200 nL was then dispensed to a U-bottom 96-well plate using Labcyte Echo. Human pancreatic cancer cell line AsPC-1 was suspended in RPMI-1640 medium supplemented with 15% fetal bovine serum to prepare a cell suspension at 1000 cells/100 μL. The cell suspension was dispensed to a plate containing a test compound at 100 μL per well and incubated at 37° C. in a 5% carbon dioxide gas incubator. 96 hours later, 80 μL of CellTiter-Glo (Promega) was added to each well and […] was measured.

IC50 [nM]	Structure (SMILES)
100 to 500	CC[C@H](C)[C@@H]1NC(=O)[C@H](CC(C)C)N(C)C(=O)C[C@@H](C)N(C)C(=O)[C@H](C2CCCCC2)N(C)C(=O)C2(CCCC2)NC(=O)[C@@H]2CCCN2C(=O)[C@H](CCc2cc(F)c(C(F)(F)F)c(F)c2)NC(=O)CN(C)C(=O)[C@H](Cc2ccc(C(F)(F)F)cc2)N(C)C(=O)[C@@H]2CCN2C(=O)[C@H](C)N(C)C1=O [Compound 39] (cyclo([Ac5c][NMeChg][NMedβ3hAla][NMeL]I[NMeA][Aze][NMePhe(4-CF3)][Sar][hPhe(3,5-F2-4-CF3)]P))
20 to 50	CC[C@H](C)[C@@H]1NC(=O)[C@H](CC(C)C)N(C)C(=O)C[C@@H](C(=O)N2CCCC2)N(C)C(=O)[C@H]([C@@H](C)CC)N(C)C(=O)C2(CCCC2)NC(=O)[C@@H]2CCCN2C(=O)[C@H](CCc2ccc(C(F)(F)F)c(F)c2)NC(=O)CN(C)C(=O)[C@H](Cc2ccc(C)cc2)N(C)C(=O)[C@@H]2CCN2C(=O)[C@H](C)N(C)C1=O [Compound 44] ([NMeL]I[NMeA][Aze][NMePhe(4-Me)][Sar][hPhe(3-F,4-CF3)]P[Ac5c][NMeI][NMeD]-Pyrrolidide; lactam N-11)
20 to 50	CC[C@H](C)[C@@H]1NC(=O)[C@H](CC(C)C)N(C)C(=O)C[C@@H](C)N(C)C(=O)[C@H](C2CCCC2)N(C)C(=O)C2(CCCC2)NC(=O)[C@@H]2CCCN2C(=O)[C@H](CCc2ccc(C(F)(F)F)c(F)c2)NC(=O)CN(C)C(=O)[C@H](CC2CCCCC2)N(C)C(=O)[C@@H]2CCN2C(=O)[C@H](C)N(C)C1=O [Compound 49] (cyclo([Ac5c][NMeGly(cPent)][NMedβ3hAla][NMeL]I[NMeA][Aze][NMeCha][Sar][hPhe(3-F,4-CF3)]P))
20 to 50	CC[C@H](C)[C@@H]1NC(=O)[C@H](CC(C)C)N(C)C(=O)C[C@@H](C)N(C)C(=O)[C@H]([C@@H](C)CC)N(C)C(=O)C2(CCCC2)NC(=O)[C@@H]2CCCN2C(=O)[C@H](CCc2ccc(C(F)(F)F)c(Cl)c2)NC(=O)CN(C)C(=O)[C@H](C2CCCC2)N(C)C(=O)[C@@H]2CCN2C(=O)[C@H](C)N(C)C1=O [Compound 79] (cyclo([Ac5c][NMeI][NMedβ3hAla][NMeL]I[NMeA][Aze][NMeGly(cPent)][Sar][hPhe(3-Cl-4-CF3)]P))
50 to 100	CC[C@H](C)[C@@H]1NC(=O)[C@H](CC(C)C)N(C)C(=O)C[C@@H](C)N(C)C(=O)[C@H](C(C)C)N(C)C(=O)C2(CCCC2)NC(=O)[C@@H]2CCCN2C(=O)[C@H](CCc2ccc(C(F)(F)F)c(Cl)c2)NC(=O)CN(C)C(=O)[C@H](CC2CCCC2)N(C)C(=O)CN(C)C(=O)CN(C)C1=O [Compound 88] (cyclo([Ac5c][NMeV][NMedβ3hAla][NMeL]I[Sar][Sar][NMeAla(cPent)][Sar][hPhe(3-Cl-4-CF3)]P))

Structure (SMILES)	IC50 [nM]
CC[C@H](C)[C@@H]1NC(=O)[C@H](CC2CCCC2)N(C)C(=O)C[C@@H](C(=O)N2CCCCC2)N(C)C(=O)[C@H](C(C)C)N(C)C(=O)C2(CCCC2)NC(=O)[C@@H]2CCCN2C(=O)[C@H](CCc2ccc(C(F)(F)F)c(Cl)c2)NC(=O)CN(C)C(=O)[C@H](CC2CCCCC2)N(C)C(=O)[C@@H]2CCN2C(=O)[C@H](C)N(C)C1=O [Compound 37] ([NMeAla(cPent)]I[NMeA][Aze][NMeCha][Sar][hPhe(3-Cl-4-CF3)]P[Ac5c][NMeV][NMeD]-Piperidide; lactam N-11)	100 to 500
CC[C@H](C)[C@@H]1NC(=O)[C@H](C2CCCCC2)N(C)C(=O)C[C@@H](C(=O)N2CCCCC2)N(C)C(=O)[C@H](C(C)C)N(C)C(=O)C2(CCCC2)NC(=O)[C@@H]2CCCN2C(=O)[C@H](CCc2ccc(C(F)(F)F)c(Cl)c2)NC(=O)CN(C)C(=O)[C@H](CC2CCCCC2)N(C)C(=O)[C@@H]2CCN2C(=O)[C@H](C)N(C)C1=O [Compound 58] ([NMeChg]I[NMeA][Aze][NMeCha][Sar][hPhe(3-Cl-4-CF3)]P[Ac5c][NMeV][NMeD]-Piperidide; lactam N-11)	100 to 500
CC[C@H](C)[C@@H]1NC(=O)[C@H](CC(C)C)N(C)C(=O)C[C@@H](C(=O)N2CCCCC2)N(C)C(=O)[C@H](C(C)C)N(C)C(=O)C2(CCCC2)NC(=O)[C@@H]2CCCN2C(=O)[C@H](CCc2ccc(C(F)(F)F)c(Cl)c2)NC(=O)CN(C)C(=O)[C@H](CCCCC(F)F)N(C)C(=O)[C@@H]2CCN2C(=O)[C@H](C)N(C)C1=O [Compound 78] ([NMeL]I[NMeA][Aze][NMeNle(6-CHF2)][Sar][hPhe(3-Cl-4-CF3)]P[Ac5c][NMeV][NMeD]-Piperidide; lactam N-11)	100 to 500
CC[C@H](C)[C@@H]1NC(=O)[C@H](CC(C)C)N(C)C(=O)C[C@@H](C(=O)N2CCCCC2)N(C)C(=O)[C@H](C2CCCCC2)N(C)C(=O)C2(CCCC2)NC(=O)[C@@H]2C[C@@H](c3ccccc3)CN2C(=O)[C@H](CCc2ccc(C(F)(F)F)c(Cl)c2)NC(=O)CN(C)C(=O)[C@H](CC2CCCCC2)N(C)C(=O)CN(C)C(=O)CN(C)C1=O [Compound 90] ([NMeL]I[Sar][Sar][NMeCha][Sar][hPhe(3-Cl-4-CF3)][Pro(trans-4-Ph)][Ac5c][NMeChg][NMeD]-Piperidide; lactam N-11)	100 to 500
